Tested on: STZ-induced diabetic rats
Experiment: Study No 2: body weight, water intake and food intake in STZ-induced diabetic rats
Assay type: in vivo, Wistar rats
Conditions: for AVERAGE FOOD INTAKE / AVERAGE WATER INTAKE / Body Weight: oral
[1] = Day 0, HCQ 22.5, VG 6, SG 0.3 mg/kg alone, HCQ+VG 22.5+6, HCQ+SG 22.5+0.3 mg/kg/day
[2] = Day 0, HCQ 45, VG 12, SG 0.6 mg/kg alone, HCQ+VG 45+12, HCQ+SG 45+0.6 mg/kg/day
[3] = Day 7, HCQ 22.5, VG 6, SG 0.3 mg/kg alone, HCQ+VG 22.5+6, HCQ+SG 22.5+0.3 mg/kg/day
[4] = Day 7, HCQ 45, VG 12, SG 0.6 mg/kg alone, HCQ+VG 45+12, HCQ+SG 45+0.6 mg/kg/day
[5] = Day 14, HCQ 22.5, VG 6, SG 0.3 mg/kg alone, HCQ+VG 22.5+6, HCQ+SG 22.5+0.3 mg/kg/day
[6] = Day 14, HCQ 45, VG 12, SG 0.6 mg/kg alone, HCQ+VG 45+12, HCQ+SG 45+0.6 mg/kg/day
[7] = Day 21, HCQ 22.5, VG 6, SG 0.3 mg/kg alone, HCQ+VG 22.5+6, HCQ+SG 22.5+0.3 mg/kg/day
[8] = Day 21, HCQ 45, VG 12, SG 0.6 mg/kg alone, HCQ+VG 45+12, HCQ+SG 45+0.6 mg/kg/day
[9] = Day 28, HCQ 22.5, VG 6, SG 0.3 mg/kg alone, HCQ+VG 22.5+6, HCQ+SG 22.5+0.3 mg/kg/day
[10] = Day 28, HCQ 45, VG 12, SG 0.6 mg/kg alone, HCQ+VG 45+12, HCQ+SG 45+0.6 mg/kg/day

CCN(CCO)CCCC(C)Nc1ccnc2cc(Cl)ccc12 (stereo not shown) [HCQ, Hydroxychloroquine]
AVERAGE FOOD INTAKE [1]: 11.45 g | AVERAGE WATER INTAKE [1]: 25.05 mL | Body Weight [1]: 199.83 ± 17.7 g | AVERAGE FOOD INTAKE [2]: 11.67 g | AVERAGE WATER INTAKE [2]: 23.88 mL | Body Weight [2]: 198 ± 11.03 g | AVERAGE FOOD INTAKE [3]: 13.35 g | AVERAGE WATER INTAKE [3]: 24.11 mL | Body Weight [3]: 190.67 ± 11.41 g | AVERAGE FOOD INTAKE [4]: 13.39 g | AVERAGE WATER INTAKE [4]: 22.41 mL | Body Weight [4]: 184.17 ± 9.99 g | AVERAGE FOOD INTAKE [5]: 11.95 g | AVERAGE WATER INTAKE [5]: 23.29 mL | Body Weight [5]: 196.17 ± 10.93 g | AVERAGE FOOD INTAKE [6]: 12.05 g | AVERAGE WATER INTAKE [6]: 21.55 mL | Body Weight [6]: 190.67 ± 9.56 g | AVERAGE FOOD INTAKE [7]: 13.00 g | AVERAGE WATER INTAKE [7]: 26.34 mL | Body Weight [7]: 199.67 ± 10.52 g | AVERAGE FOOD INTAKE [8]: 12.75 g | AVERAGE WATER INTAKE [8]: 26.22 mL | Body Weight [8]: 194.67 ± 9.52 g | AVERAGE FOOD INTAKE [9]: 14.11 g | AVERAGE WATER INTAKE [9]: 25.44 mL | Body Weight [9]: 201.17 ± 8.7 g | AVERAGE FOOD INTAKE [10]: 14.00 g | AVERAGE WATER INTAKE [10]: 25.79 mL | Body Weight [10]: 198.17 ± 9.15 g | body weight as compared to diabetic control group (monotherapies, p≦0.05): significant increase

Reference: patent US20140128402A1, “PHARMACEUTICAL COMBINATION” (IPCA Laboratories Limited, priority 2011, published 2014)
